Legend:
A549/ATCC = experiment: NCI 60 cell line panel screen (SRB); format: cell-based, human; conditions: for Log10LC50 / Log10TGI50: A549/ATCC (Non-Small Cell Lung Cancer); for Log10LC50: LC50: PG=−50; for Log10TGI50: TGI: PG=0; for Log10GI50: Non-Small Cell Lung Cancer, A549/ATCC
UACC-62 = experiment: NCI 60 cell line panel screen (SRB); format: cell-based, human; conditions: UACC-62 (Melanoma)
SK-MEL-5 = experiment: NCI 60 cell line panel screen (SRB); format: cell-based, human
NCI-H522 = experiment: NCI 60 cell line panel screen (SRB); format: cell-based, human; conditions: for Log10TGI50: NCI-H522 (Non-Small Cell Lung Cancer), TGI: PG=0; for Log10LC50: NCI-H-522 (Non-Small Cell Lung Cancer), LC50: PG=−50; for Log10GI50: Non-Small Cell Lung Cancer, NCI-H522
HCC-2998 = experiment: NCI 60 cell line panel screen (SRB); format: cell-based, human
OVCAR-4 = experiment: NCI 60 cell line panel screen (SRB); format: cell-based, human
SN12C = experiment: NCI 60 cell line panel screen (SRB); format: cell-based, human
SW-620 = experiment: NCI 60 cell line panel screen (SRB); format: cell-based, human
NCI-H226 = experiment: NCI 60 cell line panel screen (SRB); format: cell-based, human; conditions: for Log10LC50 / Log10TGI50: NCI-H226 (Non-Small Cell Lung Cancer); for Log10LC50: LC50: PG=−50; for Log10TGI50: TGI: PG=0; for Log10GI50: Non-Small Cell Lung Cancer, NCI-H226
LOX IMVI = experiment: NCI 60 cell line panel screen (SRB); format: cell-based, human
SF-295 = experiment: NCI 60 cell line panel screen (SRB); format: cell-based, human
CAKI-1 = experiment: NCI 60 cell line panel screen (SRB); format: cell-based, human; conditions: for Log10LC50 / Log10TGI50: CAKI-1 (Renal Cancer); for Log10LC50: LC50: PG=−50; for Log10TGI50: TGI: PG=0; for Log10GI50: Renal Cancer, CAKI-1
A498 = experiment: NCI 60 cell line panel screen (SRB); format: cell-based, human
DU-145 = experiment: NCI 60 cell line panel screen (SRB); format: cell-based, human
[1] = tested on: P. berghei NY malaria parasite; experiment: Antimalarial efficacies in vivo in mice
Excerpt: Neither overt toxicity nor behavioral modification was observed due to drug administration in any of these mouse experiments.

MDA-N = experiment: NCI 60 cell line panel screen (SRB); format: cell-based, human; conditions: Breast Cancer, MDA-N

CC1CCC2C(C)C(CC(O)(CO)CC3OC4OC5(C)CCC6C(C)CCC(C3C)C46OO5)OC3OC4(C)CCC1C32OO4 (stereo not drawn) [Compound 5, bis-trioxane vicinal diol]
Log10LC50 (A549/ATCC): −4.11 log10M | Log10TGI50 (A549/ATCC): −4.82 log10M | Log10GI50 (A549/ATCC): −7.59 | Log10LC50 (UACC-62; LC50: PG=−50): −4.24 log10M | Log10TGI50 (UACC-62; TGI: PG=0): −4.67 log10M | Log10GI50 (SK-MEL-5; Melanoma, SK-MEL-5): −7.69 | Log10LC50 (SK-MEL-5; SK-MEL-5 (Melanoma), LC50: PG=−50): −4.21 log10M | Log10TGI50 (SK-MEL-5; SK-MEL-5 (Melanoma), TGI: PG=0): −4.64 log10M | Log10TGI50 (NCI-H522): −4.59 log10M | Log10LC50 (NCI-H522): −4.17 log10M | Log10GI50 (NCI-H522): −7.33 | Log10GI50 (HCC-2998; Colon Cancer, HCC-2998): −4.65 | Log10LC50 (HCC-2998; HCC-2998 (Colon Cancer), LC50: PG=−50): >−4.00 log10M | Log10TGI50 (HCC-2998; HCC-2998 (Colon Cancer), TGI: PG=0): −4.23 log10M | Log10LC50 (OVCAR-4; OVCAR-4 (Ovarian Cancer), LC50: PG=−50): −4.12 log10M | Log10TGI50 (OVCAR-4; OVCAR-4 (Ovarian Cancer), TGI: PG=0): −4.55 log10M | Log10GI50 (OVCAR-4; Ovarian Cancer, OVCAR-4): −4.99 | Log10GI50 (SN12C; Renal Cancer, SN12C): −7.60 | Log10LC50 (SN12C; SN12C (Renal Cancer), LC50: PG=−50): −4.26 log10M | Log10TGI50 (SN12C; SN12C (Renal Cancer), TGI: PG=0): −4.72 log10M | Log10GI50 (SW-620; Colon Cancer, SW-620): −4.97 | Log10LC50 (SW-620; SW-620 (Colon Cancer), LC50: PG=−50): >−4.00 log10M | Log10TGI50 (SW-620; SW-620 (Colon Cancer), TGI: PG=0): >−4.00 log10M | Log10LC50 (NCI-H226): −4.11 log10M | Log10TGI50 (NCI-H226): −4.49 log10M | Log10GI50 (NCI-H226): −4.87 | Log10LC50 (LOX IMVI; LOX IMVI (Melanoma), LC50: PG=−50): −4.44 log10M | Log10TGI50 (LOX IMVI; LOX IMVI (Melanoma), TGI: PG=0): −5.47 log10M | Log10GI50 (LOX IMVI; Melanoma, LOX IMVI): <−8.00 | Log10GI50 (SF-295; CNS Cancer, SF-295): −4.94 | Log10LC50 (SF-295; SF-295 (CNS Cancer), LC50: PG=−50): −4.04 log10M | Log10TGI50 (SF-295; SF-295 (CNS Cancer), TGI: PG=0): −4.49 log10M | Log10LC50 (CAKI-1): −4.13 log10M | Log10TGI50 (CAKI-1): −4.54 log10M | Log10GI50 (CAKI-1): −4.94 | Log10LC50 (A498; A498 (Renal Cancer), LC50: PG=−50): −4.21 log10M | Log10TGI50 (A498; A498 (Renal Cancer), TGI: PG=0): −4.51 log10M | Log10GI50 (A498; Renal Cancer, A498): −4.81 | Log10LC50 (DU-145; DU-145 (Prostate Cancer), LC50: PG=−50): −4.13 log10M | Log10TGI50 (DU-145; DU-145 (Prostate Cancer), TGI: PG=0): −4.48 log10M | Log10GI50 (DU-145; Prostate Cancer, DU-145): −4.83

CC1CCC2C(C)C(CC(COC(=O)CCC(=O)O)CC3OC4OC5(C)CCC6C(C)CCC(C3C)C46OO5)OC3OC4(C)CCC1C32OO4 (stereo not drawn) [Compound 8a, bis-trioxane primary succinate monoester]
Log10LC50 (A549/ATCC): >−4.30 log10M | Log10TGI50 (A549/ATCC): >−4.30 log10M | Log10GI50 (A549/ATCC): −4.42 | Log10TGI50 (NCI-H522): >−4.30 log10M | Log10LC50 (NCI-H522): >−4.30 log10M | Log10GI50 (NCI-H522): −6.16 | ED50 ([1]; route IV): 2.2 mg/kg × 4 | ED90 ([1]; route IV): 6.3 mg/kg × 4 | % Parasite Supression at 10 mg/kg ([1]; route IV): 81.0% | ED50 ([1]; route PO): 9.0 mg/kg × 4 | ED90 ([1]; route PO): 15.0 mg/kg × 4 | % Parasite Supression at 10 mg/kg ([1]; route PO): 79.2% | Log10GI50 (MDA-N): −7.29 | Log10LC50 (NCI-H226): >−4.30 log10M | Log10TGI50 (NCI-H226): −6.67 log10M | Log10GI50 (NCI-H226): <−8.30 | Log10LC50 (CAKI-1): >−4.30 log10M | Log10TGI50 (CAKI-1): >−5.99 log10M | Log10GI50 (CAKI-1): −6.84

CC1CCC2C(C)C(CC(O)(CC3OC4OC5(C)CCC6C(C)CCC(C3C)C46OO5)CS(=O)(=O)c3ccc(C(=O)O)cc3)OC3OC4(C)CCC1C32OO4 (stereo not drawn) [Compound 10c, bis-trioxane β-hydroxysulfone benzoic acid]
Log10LC50 (A549/ATCC): >−4.30 log10M | Log10TGI50 (A549/ATCC): >−4.30 log10M | Log10GI50 (A549/ATCC): −5.28 | Log10TGI50 (NCI-H522): −4.34 log10M | Log10LC50 (NCI-H522): >−4.30 log10M | Log10GI50 (NCI-H522): <−8.30 | ED50 ([1]; route IV): 2.7 mg/kg × 4 | ED90 ([1]; route IV): 10.0 mg/kg × 4 | % Parasite Supression at 10 mg/kg ([1]; route IV): 83.4% | ED50 ([1]; route PO): 7.5 mg/kg × 4 | ED90 ([1]; route PO): 35.0 mg/kg × 4 | % Parasite Supression at 10 mg/kg ([1]; route PO): 46.1% | Log10LC50 (NCI-H226): −4.82 log10M | Log10TGI50 (NCI-H226): <−8.30 log10M | Log10GI50 (NCI-H226): <−8.30 | Log10LC50 (CAKI-1): −4.93 log10M | Log10TGI50 (CAKI-1): −6.71 log10M | Log10GI50 (CAKI-1): <−8.30
